Entries after “also recorded” stand apart in the source; their conditions may differ.
System: bacteria
Assay: Binding of targeting peptides to microorganisms (Table 3)
Conditions: preferably 1x PBS
[1] = peptide binding in aqueous buffers varied by peptide solubility
[2] = peptide binding in aqueous buffers that varied depending on peptide solubility
[3] = microorganism bound by the targeting peptide, binding in aqueous buffers chosen by peptide solubility
[4] = microorganism the targeting peptide binds, binding in aqueous buffers that varied with peptide solubility

In the case of “1T-26 (LTILPTTFFAIIVPILAVAFIAYSGFKIKGIVEHKDQW; Peptide with targeting and/or antimicrobial activity) [Peptide 1T-26]”, the “Target(s) (microorganism bound by the targeting peptide)” value [1] is reported as “S. mutans; also recorded: S. aureus; also recorded: S. epidermidis; also recorded: C. jeikeium; also recorded: C. xerosis; also recorded: C. striatum; also recorded: P. aeruginosa”.
For “PF-S004 (VLLNIFRTLLEFFSPSNAPGAEDVPLPDTQA; Peptide with targeting and/or antimicrobial activity)”, the “Target(s) (microorganism bound by the targeting peptide)” value [2] was “S. epidermidis and MRSA and C. jeikeium”.
In the case of “PF-359 (MTVMEDPGSEQRNKIQSPMKGEDFSALFGR; Peptide with targeting and/or antimicrobial activity)”, the “Target(s)” value [3] is reported as “S. epidermidis and B. fragilis and P. aeruginosa and C. albicans and MRSA and E. faecalis and C. jeikeium”.
For “1T-18 (YSKTLHFAD; Peptide with targeting and/or antimicrobial activity) [Peptide 1T-18]”, the “Target(s) (microorganism bound by the targeting peptide)” value [1] was “S. aureus; also recorded: S. epidermidis; also recorded: C. striatum; also recorded: P. aeruginosa”.
For “PF-493 (PGAFFFCRGRGCWCGIGW; Peptide with targeting and/or antimicrobial activity)”, the “Target(s) (microorganisms bound by the targeting peptide)” value [2] was “S. mutans; also recorded: B. subtilis; also recorded: E. coli”.
In the case of “PF-200 (GIELKSLIMAQIERWRQA; Peptide with targeting and/or antimicrobial activity)”, the “Target(s)” value [3] is reported as “S. epidermidis and M. luteus and MRSA and E. faecalis and C. jeikeium”.
In the case of “1T-122 (GAIPDPVTHRVDWEEDHQTRPSR; Peptide with targeting and/or antimicrobial activity) [Peptide 1T-122]”, the “Target(s) (microorganism bound by the targeting peptide)” value [1] is reported as “S. mitis”.
With “PF-266 (DQEKKNKTEESTEQ; Peptide with targeting and/or antimicrobial activity)” the “Target(s)” value [3] was “S. mutans”.
With MLTSRKKRLKKIVEEQNKKDESI [PF-336] the “Target(s)” value [3] was “S. mutans; also recorded: E. coli”.
For “PF-240 (RITEVPPDEHSDR; Peptide with targeting and/or antimicrobial activity)”, the “Target(s)” value [3] was “S. mutans; also recorded: E. coli”.
In the case of “PF-309 (GIPGMTAAPAEENEQEENADEE; Peptide with targeting and/or antimicrobial activity)”, the “Target(s)” value [3] is reported as “S. mutans; also recorded: E. coli”.
In the case of “1T-304 (STAGEASRRTASEASRRTAAKLRG; Peptide with targeting and/or antimicrobial activity) [Peptide 1T-304]”, the “Target(s)” value [4] is reported as “P. gingivalis”.
For “PF-184 (LIADRHIRA; Peptide with targeting and/or antimicrobial activity)”, the “Target(s)” value [3] was “S. epidermidis and M. luteus and E. coli and P. aeruginosa and C. albicans and MRSA and C. jeikeium”.
For “PF-733 (VISRQMGSEAVLELFIIM; Peptide with targeting and/or antimicrobial activity)”, the “Target(s) (microorganism bound by the targeting peptide)” value [2] was “S. mutans; also recorded: E. coli”.
“1T-40 (QRVSLWSEVEHEFR; Peptide with targeting and/or antimicrobial activity) [Peptide 1T-40]” was tested, and the “Target(s) (microorganism bound by the targeting peptide)” value [1] was “S. mutans; also recorded: P. aeruginosa”.
With “1T-4 (LDAYGELVGGN; Peptide with targeting and/or antimicrobial activity) [Peptide 1T-4]” the “Target(s) (microorganism bound by the targeting peptide)” value [1] was “S. gordonii; also recorded: S. sanguinis; also recorded: S. oxalis; also recorded: V. atypica; also recorded: L. casei; also recorded: S. mutans”.
With “PF-047 (NQEPSLQQDKEQKDNKG; Peptide with targeting and/or antimicrobial activity)” the “Target(s)” value [4] was “S. mutans”.
In the case of “1T-63 (EPLILKELVRNLFLFCYARALR; Peptide with targeting and/or antimicrobial activity) [Peptide 1T-63]”, the “Target(s) (microorganism bound by the targeting peptide)” value [1] is reported as “S. aureus; also recorded: S. epidermidis; also recorded: C. jeikeium; also recorded: C. xerosis; also recorded: C. striatum; also recorded: P. aeruginosa”.
For “PF-501 (GSTAHKSPIGSTNNQWGMKKTPTD; Peptide with targeting and/or antimicrobial activity)”, the “Target(s) (microorganisms bound by the targeting peptide)” value [2] was “S. mutans”.
“PF-300 (VKDVLLELFNKIIGA; Peptide with targeting and/or antimicrobial activity)” was tested, and the “Target(s)” value [3] was “B. subtilis; also recorded: C. difficile”.
With “1T-274 (ETTTEINAIKLHRIKQRSPQGTRRVN; Peptide with targeting and/or antimicrobial activity) [Peptide 1T-274]” the “Target(s)” value [4] was “F. nucleatum; also recorded: S. mutans; also recorded: S. oralis; also recorded: S. sanguinis”.
With “1T-269 (PLYVAAVEKINTAKKH; Peptide with targeting and/or antimicrobial activity) [Peptide 1T-269]” the “Target(s)” value [4] was “F. nucleatum; also recorded: S. mutans; also recorded: S. oralis; also recorded: S. sanguinis”.
For “PF-141 (VVRRFQGM; Peptide with targeting and/or antimicrobial activity)”, the “Target(s)” value [3] was “S. epidermidis and M. luteus and C. albicans and MRSA and C. jeikeium”.
For “PF-263 (NLKKCPC; Peptide with targeting and/or antimicrobial activity)”, the “Target(s)” value [3] was “S. epidermidis; also recorded: M. luteus; also recorded: A. baumannii”.
With “1T-61 (HATLLPAVREAISRQLLPALVPRG; Peptide with targeting and/or antimicrobial activity) [Peptide 1T-61]” the “Target(s) (microorganism bound by the targeting peptide)” value [1] was “P. aeruginosa”.
“PF-791 (IFLTTQNTDYSEHNAA; Peptide with targeting and/or antimicrobial activity)” was tested, and the “Target(s) (microorganism bound by the targeting peptide)” value [2] was “S. mutans”.
“1T-192 (ILVLLALQVELDSKFQY; Peptide with targeting and/or antimicrobial activity) [Peptide 1T-192]” was tested, and the “Target(s)” value [4] was “S. sanguinis”.
With “PF-160 (SFHASLTKNEKPIKSTG; Peptide with targeting and/or antimicrobial activity)” the “Target(s)” value [3] was “S. epidermidis”.
For “PF-727 (AYARCRHDYPFTLGQMQTH; Peptide with targeting and/or antimicrobial activity)”, the “Target(s) (microorganism bound by the targeting peptide)” value [2] was “S. mutans; also recorded: E. coli”.
For “PF-236 (KEIRTATVAELNAKRRLTSAEQALAEVS; Peptide with targeting and/or antimicrobial activity)”, the “Target(s)” value [3] was “S. mutans; also recorded: S. epidermidis; also recorded: E. coli; also recorded: C. albicans; also recorded: S. pneumoniae; also recorded: E. faecalis”.
With “PF-570 (KKFPTEESHIQAVLEFKKLTEHPSG; Peptide with targeting and/or antimicrobial activity)” the “Target(s) (microorganisms bound by the targeting peptide)” value [2] was “S. pneumoniae; also recorded: C. jeikeium”.
For “PF-C160 (AASGFTYCASNGVWHPY; Peptide with targeting and/or antimicrobial activity)”, the “Target(s) (microorganism bound by the targeting peptide)” value [2] was “F. nucleatum”.
“PF-509 (EAKVQAKGEQIACNNY; Peptide with targeting and/or antimicrobial activity)” was tested, and the “Target(s) (microorganisms bound by the targeting peptide)” value [2] was “S. mutans; also recorded: B. subtilis; also recorded: E. coli”.
In the case of “1T-93 (AMRSVNQA; Peptide with targeting and/or antimicrobial activity) [Peptide 1T-93]”, the “Target(s) (microorganism bound by the targeting peptide)” value [1] is reported as “S. epidermidis; also recorded: S. gordonii; also recorded: S. mitis; also recorded: S. mutans; also recorded: S. oralis; also recorded: S. sanguinis”.
In the case of “1T-66 (DTDCLSRAYAQRIDELDKQYAGIDKPL; Peptide with targeting and/or antimicrobial activity) [Peptide 1T-66]”, the “Target(s) (microorganism bound by the targeting peptide)” value [1] is reported as “S. mutans; also recorded: S. aureus; also recorded: S. epidermidis; also recorded: C. jeikeium; also recorded: C. xerosis; also recorded: C. striatum; also recorded: P. aeruginosa”.
With “PF-502 (NKGKQMQDQTGKQPIVDNG; Peptide with targeting and/or antimicrobial activity)” the “Target(s) (microorganisms bound by the targeting peptide)” value [2] was “S. mutans”.
“PF-338 (KGTSCPDQLSKAIRQSI; Peptide with targeting and/or antimicrobial activity)” was tested, and the “Target(s)” value [3] was “S. mutans”.
In the case of “1T-250 (LVQGDTILIENHVGTPVKDDGKDCLIIREADVLAVVND; Peptide with targeting and/or antimicrobial activity) [Peptide 1T-250]”, the “Target(s)” value [4] is reported as “S. mitis; also recorded: S. mutans; also recorded: S. oralis”.
With “PF-131 (RRAAARTKGNRR; Peptide with targeting and/or antimicrobial activity)” the “Target(s)” value [3] was “S. epidermidis and E. coli and MRSA and C. jeikeium”.
“PF-495 (KGIYKKRTY; Peptide with targeting and/or antimicrobial activity)” was tested, and the “Target(s) (microorganisms bound by the targeting peptide)” value [2] was “S. mutans; also recorded: E. coli”.
With “TT-311 (AIFDAMHNL; Peptide with targeting and/or antimicrobial activity)” the “Target(s)” value [4] was “S. mutans; also recorded: S. sobrinus”.
With “1T-121 (FAKETGFGIGGAQEGWWIIADIYGPNPF; Peptide with targeting and/or antimicrobial activity) [Peptide 1T-121]” the “Target(s) (microorganism bound by the targeting peptide)” value [1] was “S. gordonii; also recorded: S. mitis; also recorded: S. mutans; also recorded: S. oralis; also recorded: S. salivarious; also recorded: S. sanguinis”.
“PF-163 (TSWLRAAERQEIGEPTKTFGEKTTSL; Peptide with targeting and/or antimicrobial activity)” was tested, and the “Target(s)” value [3] was “S. epidermidis”.
With “1T-108 (WGPLGPERPLW; Peptide with targeting and/or antimicrobial activity) [Peptide 1T-108]” the “Target(s) (microorganism bound by the targeting peptide)” value [1] was “S. gordonii; also recorded: S. mitis; also recorded: S. mutans; also recorded: S. oralis; also recorded: S. salivarious; also recorded: S. sanguinis”.
“PF-134 (GKAMKRQDCSAL; Peptide with targeting and/or antimicrobial activity)” was tested, and the “Target(s)” value [3] was “S. epidermidis; also recorded: C. jeikeium”.
With “1T-249 (VFSVLKHTTWPTRKQSWHDFISILEYSAFFALVIFIFDKLLTLGLAELLKRF; Peptide with targeting and/or antimicrobial activity) [Peptide 1T-249]” the “Target(s)” value [4] was “F. nucleatum; also recorded: S. sanguinis”.

From patent publication US9597407B2, “Targeted antimicrobial moieties” (C3 Jian, Inc., priority 2009, dated 2017)
